Publication PMC5331435, “Metabolism of Zearalenone and Its Major Modified Forms in Pigs” (Toxins, 2017)
Entries after “also recorded” stand apart in the source; their conditions may differ.

What was measured:
human gut microbiota = conditions: cited from earlier work; for Share hydrolyzed after incubation with human gut microbiota: four hours; for Dose converted to unidentified metabolites / not recovered as identified metabolites / Dose detected as the aglycone (ZEN, α-ZEL or β-ZEL): incubation with human gut microbiota
human Caco-2/TC7 cells = conditions: after six and 24 h; cited from earlier work
[1] = oral dose, cited from earlier work; for Recovery in rats: rats (ZEN-14-Glc as ZEN equivalents)
[2] = system: human breast cancer cells (MCF7); parameters: method as in PMID 26792714; conditions: MCF7 including fetal bovine serum; cited from earlier work
[3] = system: human intestinal bacteria; parameters: method as in PMID 23347206; conditions: human in vitro model; cited from earlier work
[4] = parameters: method as in PMID 27856298; conditions: in vitro; cited from earlier work
[5] = Excretion and biological recovery of ZEN and its metabolites in urine and feces of piglets after a single oral bolus (HPLC-MS/MS); format: in vivo, pigs; conditions: for Hydrolysis in the gastrointestinal tract of pigs: oral application, conclusion from excreta analysis
Protocol: Four castrated male weaning piglets (sow: Landrace × Large White, boar: Pietrain; 33–35 days old, 7.9 ± 0.6 kg) were obtained from a local producer in Lower Austria. Animals were housed separately in metabolic cages in total for 22 days and were allowed to acclimatize for five days before the start of the experiment. They had free access to water and feed was provided twice per day (semi ad libitum). The diet was analyzed for its concentration of ZEN and naturally occurring metabolites thereof.
(§1) Using a repeated measures design, the piglets (n = 4) received water (negative control), ZEN (10 µg/kg b.w.; positive control) and the equimolar dose of ZEN-14-S (12.5 µg/kg b.w.), ZEN-16-Glc (15.1 µg/kg b.w.) and ZEN-14-Glc (15.1 µg/kg b.w.) per gavage (orogastric application) on day 1, 3, 7, 11, and 15 of the experiment, respectively. From the stock solutions containing between 991 (ZEN-14-S) and 1274 (ZEN-14-Glc) µg/mL of the analytes the adequate volumes for the animal experiment were removed and diluted with water for the oral application to obtain 5 µg/mL ZEN and the equimolar concentration of the other analytes in the aqueous stock solutions. Using polyvinyl chloride catheters (diameter 4.7 mm, Ch 14, mpö pfm GesmbH (Klagenfurt, Austria), length was adapted to the size of the esophagus of the piglets), volumes between 16 and 30 mL of the aqueous stock solutions were orally administered to the piglets, considering the piglets’ weight. After the toxin application, 10 mL of water was used to flush the catheter. Urine and feces of each of the piglets were quantitatively collected for the periods 0–24 h and 24–48 h after dosing. Urine was measured volumetrically on site and all excreta samples were stored at −20 °C until lyophilization (feces) or sample preparation and analysis (urine). The general condition of the animals was observed daily during the experiment.
Urine samples were diluted 1:5000 with water and the creatinine content was determined by LC-MS/MS as described earlier. For determination of ZEN, its plant and fungal metabolites and their metabolites in pigs, urine samples were diluted to 0.2 mM creatinine with water and centrifuged prior to HPLC-MS/MS analysis.
Five-hundred milligram aliquots of freeze-dried and thoroughly homogenized feces samples were extracted three times (90/30/30 min) with 5 mL each of ACN/water (50/50, v/v) on a GFL rotary shaker (type 3017, Burgwedel, Germany). After each extraction step, samples were clarified by centrifugation (10 min, 12,500 rpm, GS-15 centrifuge, Beckman Coulter, Indianapolis, IN, USA). Aliquots of the pooled supernatants were centrifuged and measured by HPLC-MS/MS.
Analysis of the feces and urine samples was performed on a 1290 Infinity series UHPLC system (Agilent Technologies, Waldbronn, Germany) coupled to a 6500 QTrap mass spectrometer equipped with an IonDrive TurboV source (Sciex, Foster City, CA, USA). Analyst software version 1.6.2 (Sciex, Foster City, CA, USA) was used for instrument control and data analysis. Chromatographic separation was carried out on a Kinetex Biphenyl column (150 mm × 3 mm, 2.6 µm, Phenomenex, Aschaffenburg, Germany). Eluent A consisted of water/acetic acid (99.9/0.1, v/v), eluent B was composed of ACN/acetic acid (99.9/0.1, v/v). […] At 14 min, 100% was reached which was held until 16.9 min. Afterwards, the column was re-equilibrated at 15% B for 3 min, resulting in a total run time of 20 min. The flow rate was 400 µL/min, the column temperature was 30 °C and the injection volume was 2 µL. Mass spectrometric detection was performed in negative electrospray ionization mode and selected reaction monitoring (SRM) was applied as scan type. The source settings were as follows: source temperature 400 °C, ion spray voltage −4500 V, curtain gas 35 psi (ca. 240 kPa), ion source gas 1 at 55 psi (ca. 379 kPa) and gas 2 at 65 psi (ca. 448 kPa), collision gas (nitrogen) high. […]

human estrogen receptor = system: human estrogen receptor; parameters: method as in PMID 16751557; conditions: cited from earlier work
[6] = parameters: method as in PMID 2143610; conditions: contaminated feed, one pig; cited from earlier work
[7] = difference of hydrolyzed and untreated urine; cited from earlier work
uterus weight = system: uterus weight; parameters: method as in PMID 1827972; conditions: intragastric, rats n = 6 per treatment; cited from earlier work
[8] = system: intestinal bacteria from human fecal slurry; parameters: method as in PMID 24386883; conditions: cited from earlier work
[9] = pigs, cited from earlier work
[10] = parameters: method as in earlier work; conditions: humans, based on studies in pigs; cited from earlier work
piglets = experiment: Observation of clinical symptoms in treated piglets; format: in vivo, pigs; conditions: single orogastric bolus, 10 µg/kg b.w. ZEN or equimolar dose, four piglets
Protocol: For animal welfare considerations, amounts of administered toxins were chosen on the basis of no-observed-effect-levels of 10 µg/kg body weight per day for oral application in pigs. In short, four piglets received a single orogastric bolus of ZEN (10 µg/kg b.w.) and of its plant or fungal metabolites (at equimolar dose), respectively, using a repeated measures design.
as §1, with “Using polyvinyl chloride catheters (diameter 4.7 mm, Ch 14, mpö pfm GesmbH (Klagenfurt, Austria), length was adapted to the size of the esophagus of the piglets), volumes between 16 and 30 mL of the aqueous stock solutions were orally administered to the piglets, considering the piglets’ weight. After the toxin application, 10 mL of water was used to flush the catheter.” left out, “The general condition of the animals was observed daily during the experiment.” left out

[11] = after oral administration, piglets
[12] = urine samples after oral administration, piglets

CC1CCCC(O)CCCC=Cc2cc(OC3OC(CO)C(O)C(O)C3O)cc(O)c2C(=O)O1 (stereo not drawn) [α-ZEL-14-Glc]
Share hydrolyzed after incubation with human gut microbiota (human gut microbiota): over 97% | Dose converted to unidentified metabolites / not recovered as identified metabolites (human gut microbiota): 40% | Dose detected as the aglycone (ZEN, α-ZEL or β-ZEL) (human gut microbiota): 60% | Amount detected in the basolateral compartment (human Caco-2/TC7 cells): only traces

C[C@H]1CCCC(=O)CCC/C=C/c2cc(O[C@@H]3O[C@H](CO)[C@@H](O)[C@H](O)[C@H]3O)cc(O)c2C(=O)O1 [ZEN-14-Glc, zearalenone-14-O-β-glucoside]
Recovery in rats [1]: 71% | Hydrolysis in the GI tract of rats ([1]; rats): partly hydrolyzed in the upper part of the GI tract | Share hydrolyzed after incubation with human gut microbiota (human gut microbiota): over 97% | Dose converted to unidentified metabolites / not recovered as identified metabolites (human gut microbiota): 50% | Dose detected as the aglycone (ZEN, α-ZEL or β-ZEL) (human gut microbiota): 40% | Conversion by MCF7 cells [2]: convert ZEN-14-Glc to ZEN, α-ZEL and β-ZEL | Hydrolysis upon incubation with human intestinal bacteria [3]: completely hydrolyzed within 30 min | Hydrolysis in bovine serum, plasma and whole blood [4]: in vitro hydrolysis of ZEN-14-Glc and release of ZEN | Detection of the intact administered conjugate in urine and feces [5, 11]: none of the glucosides could be detected in urine or feces | Detection of the intact administered conjugate in urine and feces ([5]; after oral administration, piglets, listed as ZEN-14-O-β-glucoside): neither detected in urine nor in feces | Hydrolysis in the gastrointestinal tract of pigs [5]: readily hydrolyzed to ZEN | Hydrolysis in the gastrointestinal tract of pigs ([5]; listed as ZEN-14-O-β-glucoside): completely hydrolyzed | Interaction with the human estrogen receptor (human estrogen receptor): interrupted | Metabolization during digestion in the pig [6]: completely metabolized to ZEN and α-ZEL | Amount detected in the basolateral compartment (human Caco-2/TC7 cells): only traces

C[C@H]1CCC[C@H](O)CCC/C=C/c2cc(O)cc(O)c2C(=O)O1 [α-ZEL, α-zearalenol]
Glucuronidation in pig urine [7]: 88% | Glucuronidation in urine [7]: 75%

C[C@H]1CCC[C@@H](O)CCC/C=C/c2cc(O)cc(O)c2C(=O)O1 [β-ZEL, β-zearalenol]
Glucuronidation in pig urine [7]: 94% | Glucuronidation in urine [7]: 56%

C[C@H]1CCCC(=O)CCC/C=C/c2cc(OS(=O)(=O)O)cc(O)c2C(=O)O1 [ZEN-14-S, zearalenone-14-sulfate]
Hydrolysis upon incubation with human intestinal bacteria [3]: completely hydrolyzed within 30 min | Detection of the intact administered conjugate in urine and feces [5, 11]: neither detected in urine nor in feces samples | Detection of the intact administered conjugate in urine and feces ([5]; after oral administration, piglets, listed as ZEN-14-sulfate): neither detected in urine nor in feces | ZEN metabolites in feces ([5]; after oral application, piglets, listed as ZEN-14-sulfate): no ZEN metabolites were detected | Hydrolysis in the gastrointestinal tract of pigs [5]: rapidly hydrolyzed; also recorded: readily hydrolyzed to ZEN | Hydrolysis in the gastrointestinal tract of pigs ([5]; listed as ZEN-14-sulfate): completely hydrolyzed | Concentration of ZEN in urine ([5]; second sampling period (24–48 h), piglets): Only traces | Concentration of α-ZEL in urine [5, 12]: traces | Estrogenic activity (effect on uterus weight) (uterus weight): partially retained the estrogenic activities of ZEN

C[C@H]1CCCC(=O)CCC/C=C/c2cc(O)cc(O[C@@H]3O[C@H](CO)[C@@H](O)[C@H](O)[C@H]3O)c2C(=O)O1 [ZEN-16-Glc, zearalenone-16-O-β-glucoside]
Detection of the intact administered conjugate in urine and feces [5, 11]: none of the glucosides could be detected in urine or feces | Detection of the intact administered conjugate in urine and feces ([5]; after oral administration, piglets, listed as ZEN-16-O-β-glucoside): neither detected in urine nor in feces | Hydrolysis in the gastrointestinal tract of pigs [5]: readily hydrolyzed to ZEN | Hydrolysis in the gastrointestinal tract of pigs ([5]; listed as ZEN-16-O-β-glucoside): completely hydrolyzed | Concentration of ZEN-14-GlcA in urine [5, 12]: traces | Residue in the fecal slurry ([8]; after two hours): no residue | Conversion by intestinal bacteria from human fecal slurry ([8]; within 30 min): nearly completely converted to ZEN within 30 min

C[C@H]1CCC[C@@H](O)CCC/C=C/c2cc(O[C@@H]3O[C@H](CO)[C@@H](O)[C@H](O)[C@H]3O)cc(O)c2C(=O)O1 [β-ZEL-14-Glc]
Share hydrolyzed after incubation with human gut microbiota (human gut microbiota): over 97% | Dose converted to unidentified metabolites / not recovered as identified metabolites (human gut microbiota): 70% | Dose detected as the aglycone (ZEN, α-ZEL or β-ZEL) (human gut microbiota): 30%

[13CH3][13C@H]1[13CH2][13CH2][13CH2][13C](=O)[13CH2][13CH2][13CH2]/[13CH]=[13CH]/[13c]2[13cH][13c](O)[13cH][13c](O)[13c]2[13C](=O)O1 [^13C-labeled ZEN]
Recovery in rats [1]: 74%

C[C@H]1CCCC(=O)CCC/C=C/c2cc(O)cc(O)c2C(=O)O1 [ZEN, zearalenone]
Mean percentage of ingested ZEN excreted into urine ([9]; 24 h after application): 28.4% | Biological recovery of intravenously administered ZEN ([9]; intravenous): 77% | Part eliminated via urine within 12 h ([9]; intravenous): 44% | Terminal elimination half-life ([9]; intravenously administered): 2.63 h | Biological recovery of orally administered radiolabeled ZEN ([9]; oral, after 48 h): 67% | Radioactive ZEN excreted in bile that was reabsorbed into the systemic blood system [9]: about 85% | Tolerable daily intake (TDI) [10]: 0.25 µg/kg b.w. | Glucuronidation in pig urine [7]: 27% | Glucuronidation in urine [7]: 23% | Detection of β-ZEL in urine and feces [5, 11]: neither be detected in urine nor in feces samples | Clinical symptoms during and after treatment (piglets): no clinical symptoms were observed
